Reference: US3965257A, “Compositions and methods for the treatment of the symptoms of histamine induced allergic reactions” (Richardson-Merrell Inc., priority 1974, dated 1976)

Columns and labels:
[1] = test system: aerosol antigen induced bronchial spasms and death; assay: prevention of aerosol antigen induced bronchial spasms and death in the guinea pig; assay type: in vivo; details: Cavia porcellus, po, orally, read-out: minimal amount required to prevent aerosol antigen induced bronchial spasms and death
From the text: The minimal amounts of the compounds of Examples 4,5,6 and 9 required to prevent aerosol antigen induced bronchial spasms and death in the quinea pig are respectively 1.0, 4.0, 1.0 and 4.0 milligrams per kilogram of body weight orally.

[2] = test system: wheals induced by intradermal injections of histamine; assay: reduction by 50% of wheals induced by intradermal injections of histamine into guinea pigs; assay type: in vivo, guinea pig; details: Cavia porcellus, po, 1 h, orally administered one hour prior to the histamine injection, read-out: ED50 (amount required to reduce by 50% wheals induced by intradermal injections of histamine)

| SMILES | minimal effective dose [1] | ED50 [2] |
| --- | --- | --- |
| CC(C)(C)c1ccc(C(=O)CCCN2CCC(C(O)(c3ccccc3)c3ccccc3)CC2)cc1.Cl [Example 6, 4'-tert-Butyl-4-[4-(α-hydroxy-α-phenylbenzyl)piperidino] butyrophenone hydrochloride] | 1 mg/kg | 1.8 mg/kg |
| O=C(CCCN1CCC(C(O)(c2ccccc2)c2ccccc2)CC1)c1ccc(N2CCCCC2)cc1 [Example 9, 4-[4-(α-Hydroxy-α-phenylbenzyl)piperidino]-4'-piperidinobutyrophenone] | 4 mg/kg | 3.4 mg/kg |
| Cc1ccc(C(=O)CCCN2CCC(C(O)(c3ccccc3)c3ccccc3)CC2)cc1.Cl [Example 5, 4-[4-(α-Hydroxy-α-phenylbenzyl)piperidino] -4'-methylbutyrophenone hydrochloride] | 4 mg/kg | 1.9 mg/kg |
| Cl.O=C(CCCN1CCC(C(O)(c2ccccc2)c2ccccc2)CC1)c1cccs1 [Example 4, 4-[4-(α -Hydroxy-α -phenylbenzyl)piperidino] -1-(2-thienyl)-butan-1-one hydrochloride] | 1 mg/kg | 3.1 mg/kg |
